By IC50 is commonly meant the concentration at which inhibition is half-maximal.

“Also recorded” adds a separate entry of the source. Like-named read-outs stand apart in the source and are kept apart here.

Data on five molecules can be found in US20160008419A1, “Methods and Compositions for the Prevention and Treatment of Parasitic Disease” (THE BOARD OF TRUSTEES OF THE LELAND STANFORD JUNIOR …, priority 2013, published 2016).

The subject of series [1] is parasites in human RBC culture. The experiment in a line: Parasite growth (parasitemia) in human RBC culture with ALDH inhibitor. Format: cell-based. How it is done: FIG. 8 depicts the effect of ALDH inhibitor, disulfiram, on parasitemia in RBC. Parasitemia were determined 24 and 72 hours after the addition of disulfiram at the indicated concentrations.
Disulfirm and diadzin are used as deterrents for treatment of alcoholism, and as such, are both safe and effective ALDH2 inhibitors. […] As a negative control, pyrazole, an alcohol dehydrogenase inhibitor, at a concentration as high as 500 μM has no effect on the growth of parasites.

Series [2] concerns P. falciparum. To be noted: cited from earlier work.
The subject of series [3] is P. falciparum. The experiment in a line: Parasitemia in P. falciparum infected human red blood cells treated with acetaldehyde. Format: cell-based, Plasmodium falciparum. To be noted: acetaldehyde μM range (low levels); Geimsa stain and flow cytometry; preliminary data. How it is done: Parasitemia counts were determined by Geimsa stain and FACS.
[…] Exp. Res., 22: 1161-1164). […] Further, μM concentrations of 4HNE are also very common under conditions of infection, inflammation or fever (e.g. during the chill-fever cycles of malaria).
On the technique in general: A flow cytometer gives signals particle by particle.

For series [4] the following is noted: 2.5 alcoholic drinks (0.5 g/kg body weight), cited from earlier work.
For series [5] the following is noted: after drinking alcohol; cited from earlier work.
The conditions of series [6]: expected.
The subject of the next series is P. berghei. Particulars: wild type mice; expected.

Source text for P. berghei: In this model, infections with P. berghei ANKA and NK65 strains yield highly reproducible peripheral parasitemias and gametocytemias that are infectious to An. stephensi. […] The ALDH2*2 mouse is on a C57/BL6 background, a mouse strain that is the most susceptible among common mouse strains to hepatic infection with P. berghei (Scheller L. F., et al. Susceptibility of different strains of mice to hepatic infection with Plasmodium berghei. Infect Immun. 1994; 62(11):4844-7). […] On the day of infection, mice in each of the experimental groups are infected by bite of An. stephensi (5-10 mosquitoes/mouse).
During P. berghei infection, liver stages and accompanying pathology are evident by 39 hr post-infection (Scheller L. F., et al. Susceptibility of different strains of mice to hepatic infection with Plasmodium berghei. Infect Immun. 1994; 62(11):4844-7), peripheral parasitemia is evident by 4-5 days post-infection, and gametocytemia rises with peripheral parasitemia to become infectious to An. stephensi. Based on these parameters, mice that are not sacrificed within 39-48 hrs post-infection to assess liver stage parasites and pathology are examined daily for peripheral parasitemia beginning at 3 days post-infection.

As for `c1cn[nH]c1` [pyrazole], in series [1] (negative control, concentration as high as 500 μM), the “effect on the growth of parasites” value was “no effect”.

In the case of `CC=O` [acetaldehyde], the “toxicity to malaria parasites in vitro” value with P. falciparum [2] is “toxic”. For the same molecule, the “growth of P. falciparum / parasitemia in human RBCs” value in the series on P. falciparum [3] is reported as “inhibit growth; also recorded: reduces parasitemia”. Moreover, the blood acetaldehyde level was 60 µM in series [4] (human ALDH2*2 heterozygotic subjects) and around 2 µM in series [4] (subjects with wild type enzyme). Also, the “acetaldehyde concentration in human saliva” value in series [5] was at least 450 µM.

As to “tetraethylthioperoxydicarbonic diamide [disulfiram]”, the IC50 in series [1] (human RBC culture, in the absence of alcohol, read-out: inhibition of parasite growth IC50) was found to be 9.7 µM.

As for `CCCCCC(O)C=CC=O` (stereo not drawn) [4HNE, 4-Hydroxy-2-nonenal], in the series on P. falciparum [2] (50-100 μM), the “reduction of growth of P. falciparum relative to controls” value was 50-100%. In addition, the “toxicity to malaria parasites in vitro” value with P. falciparum [2] was “toxic”.

In the case of `CCO` [ethanol], the “difference in blood acetaldehyde level between wild type and ALDH2*2 mutant animals” value in series [6] (1.5 to 4.0 g/kg acute ethanol administration) is “at least 5 fold”. Further, in series [6] (after single dose of ethanol), the “duration of the difference in blood acetaldehyde level” value is 4 to 6 h. The “parasite infection, histopathology, or transmission due to ethanol treatment” value in the series on P. berghei is “no significant differences”.
